Assay results as given in ChEMBL document CHEMBL1145021, “First X-ray cocrystal structure of a bacterial FabH condensing enzyme and a small molecule inhibitor achieved using rational design and homology modeling” (J Med Chem, 2003).

Key:
[1] = Inhibitory activity against Escherichia coli Beta-ketoacyl-ACP synthase III (initiator of the fatty acid synthesis)
[2] = Inhibitory activity against Streptococcus pneumoniae Beta-ketoacyl-ACP synthase III (initiator of the fatty acid synthesis)
[3] = Inhibitory activity against Streptococcus pneumoniae Beta-ketoacyl-ACP synthase III (FabH) (initiator of the fatty acid synthesis)
[4] = Inhibitory activity against Escherichia coli Beta-ketoacyl-ACP synthase III (FabH) (initiator of the fatty acid synthesis)
[5] = Inhibitory activity against Escherichia coli FabH (initiator of the fatty acid synthesis)
[6] = Inhibitory activity against Streptococcus pneumoniae FabH (initiator of the fatty acid synthesis)

| IC50 [3] [nM] | IC50 [4] [nM] | Structure (SMILES) | further results |
| --- | --- | --- | --- |
| – | – | O=C(O)c1ccc(Cn2c(C(=O)O)cc3cc(OCc4c(Cl)cccc4Cl)ccc32)cc1 | IC50 [1]: 2500 nM; IC50 [2]: 200 nM |
| 1200 | 78000 | O=C(O)Cn1c(C(=O)O)cc2cc(OCc3c(Cl)cccc3Cl)ccc21 | – |
| 140 | – | O=C(O)CCCCCn1c(C(=O)O)cc2cc(OCc3c(Cl)cccc3Cl)ccc21 | – |
| – | – | O=C(O)c1cc2cc(OCc3c(Cl)cccc3Cl)ccc2n1Cc1cc2c(cc1Cl)OCO2 | IC50 [5]: 830 nM; IC50 [6]: 40 nM |
| – | – | O=C(O)c1cc2cc(OCc3c(Cl)cccc3Cl)ccc2n1Cc1ccc(O)cc1 | IC50 [5]: 2000 nM; IC50 [6]: 53 nM |
| 62 | 1700 | O=C(O)CCCn1c(C(=O)O)cc2cc(OCc3c(Cl)cccc3Cl)ccc21 | – |
| 46 | 4600 | O=C(CCCCCn1c(C(=O)O)cc2cc(OCc3c(Cl)cccc3Cl)ccc21)NS(=O)(=O)c1ccccc1 | – |
| 170 | 2000 | O=C(O)CCCCCCn1c(C(=O)O)cc2cc(OCc3c(Cl)cccc3Cl)ccc21 | – |
